# Measurements taken from ChEMBL document CHEMBL5352426, “Synthesis and anti-tumor activity of nitrogen-containing derivatives of the natural product diphyllin” (Eur J Med Chem, 2022).
# Experiments:
# [1] = test system: CFPAC-1; assay: Antiproliferative activity against human CFPAC-1 cells assessed as inhibition of cell proliferation at 1 uM incubated for 72 hrs by SRB assay relative to control; type: functional
# [2] = test system: Panc02; assay: Antiproliferative activity against mouse Panc02 cells assessed as inhibition of cell proliferation at 1 uM incubated for 72 hrs by SRB assay relative to control; type: functional
# [3] = test system: PaTu 8988t; assay: Antiproliferative activity against human PaTu 8988t cells assessed as inhibition of cell proliferation at 1 uM incubated for 72 hrs by SRB assay relative to control; type: functional
# [4] = Antiproliferative activity against human L02 cells assessed as inhibition of cell proliferation at 1 uM incubated for 72 hrs by SRB assay relative to control; type: toxicity, cell-based
# [5] = test system: MIA PaCa-2; assay: Antiproliferative activity against human MIA PaCa-2 cells assessed as inhibition of cell proliferation at 1 uM incubated for 72 hrs by SRB assay relative to control; type: functional
# [6] = test system: CFPAC-1; assay: Induction of cell cycle arrest in human CFPAC-1 cells assessed as accumulation at G2 phase at 100 nM incubated for 24 hrs by flow cytometry (reference value: 11 %); type: functional
# [7] = test system: Panc02; assay: Antitumor activity against […] Panc02 cells xenografted in C57BL/6 mouse assessed as tumor growth inhibition at 10 mg/kg, ip administered every two days for 20 days by electronic caliper method relative to control; type: functional; conditions: Panc02, 480 h, time 20 day, read-out: TGI
# [8] = test system: CFPAC-1; assay: Induction of cell cycle arrest in human CFPAC-1 cells assessed as accumulation at S phase at 1000 nM incubated for 24 hrs by flow cytometry (reference value: 28.5 %); type: functional
# [9] = test system: Panc02; assay: Antiproliferative activity against mouse Panc02 cells assessed as inhibition of cell proliferation incubated for 72 hrs by SRB assay; type: functional, cell-based; conditions: Panc02, 72 h
# [10] = test system: PaTu 8988t; assay: Antiproliferative activity against human PaTu 8988t cells assessed as inhibition of cell proliferation incubated for 72 hrs by SRB assay; type: functional, cell-based
# [11] = test system: CFPAC-1; assay: Induction of apoptosis in human CFPAC-1 cells assessed as viable cells at 1 uM incubated for 24 hrs by annexin V-FITC/PI staining based flow cytometry (reference value: 92.9 %); type: functional; conditions: read-out: Activity
# [12] = test system: CFPAC-1; assay: Induction of apoptosis in human CFPAC-1 cells assessed as early apoptotic cells at 10 uM incubated for 24 hrs by annexin V-FITC/PI staining based flow cytometry (reference value: 2.93 %); type: functional
# [13] = Antiproliferative activity against human L02 cells assessed as inhibition of cell proliferation incubated for 72 hrs by SRB assay; type: toxicity, cell-based
# [14] = test system: CFPAC-1; assay: Induction of cell cycle arrest in human CFPAC-1 cells assessed as accumulation at G1 phase at 100 nM incubated for 24 hrs by flow cytometry (reference value: 57.6 %); type: functional
# [15] = Metabolic stability in human liver microsome assessed as half life; type: ADME; conditions: liver microsomes
# [16] = test system: CFPAC-1; assay: Induction of cell cycle arrest in human CFPAC-1 cells assessed as accumulation at S phase at 100 nM incubated for 24 hrs by flow cytometry (reference value: 28.5 %); type: functional
# [17] = Toxicity in C57BL/6 mouse xenografted with […] cells assessed as body weight loss at 10 mg/kg, ip administered every two days for 20 days; type: organism-based; conditions: in vivo, 480 h, time 20 day
# [18] = Metabolic stability in mouse liver microsome assessed as half life; type: ADME; conditions: liver microsomes
# [19] = Metabolic stability in mouse liver microsome assessed as hepatic clearance; type: ADME; conditions: microsomes
# [20] = Metabolic stability in human liver microsome assessed as hepatic clearance; type: ADME; conditions: microsomes
# [21] = test system: CFPAC-1; assay: Induction of cell cycle arrest in human CFPAC-1 cells assessed as accumulation at S phase at 10 nM incubated for 24 hrs by flow cytometry (reference value: 28.5 %); type: functional
# [22] = test system: MIA PaCa-2; assay: Antiproliferative activity against human MIA PaCa-2 cells assessed as inhibition of cell proliferation incubated for 72 hrs by SRB assay; type: functional, cell-based; conditions: MIA PaCa-2, 72 h
# [23] = test system: CFPAC-1; assay: Induction of cell cycle arrest in human CFPAC-1 cells assessed as accumulation at G1 phase at 1000 nM incubated for 24 hrs by flow cytometry (reference value: 57.6 %); type: functional
# [24] = test system: CFPAC-1; assay: Induction of apoptosis in human CFPAC-1 cells assessed as early apoptotic cells at 1 uM incubated for 24 hrs by annexin V-FITC/PI staining based flow cytometry (reference value: 2.93 %); type: functional
# [25] = test system: CFPAC-1; assay: Induction of cell cycle arrest in human CFPAC-1 cells assessed as accumulation at G2 phase at 1000 nM incubated for 24 hrs by flow cytometry (reference value: 11 %); type: functional
# [26] = test system: CFPAC-1; assay: Induction of apoptosis in human CFPAC-1 cells assessed as necrotic cells at 10 uM incubated for 24 hrs by annexin V-FITC/PI staining based flow cytometry (reference value: 0.27 %); type: functional
# [27] = Toxicity in C57BL/6 mouse xenografted with […] cells assessed as drug tolerance at 10 mg/kg, ip administered every two days for 20 days; type: organism-based; conditions: in vivo, 480 h, time 20 day
# [28] = Metabolic stability in human liver microsome assessed as intrinsic clearance; type: ADME; conditions: liver microsomes, read-out: CLH
# [29] = test system: CFPAC-1; assay: Induction of cell cycle arrest in human CFPAC-1 cells assessed as accumulation at G1 phase at 10 nM incubated for 24 hrs by flow cytometry (reference value: 57.6 %); type: functional
# [30] = test system: CFPAC-1; assay: Induction of apoptosis in human CFPAC-1 cells assessed as late apoptotic cells at 1 uM incubated for 24 hrs by annexin V-FITC/PI staining based flow cytometry (reference value: 3.88 %); type: functional
# [31] = test system: CFPAC-1; assay: Induction of cell cycle arrest in human CFPAC-1 cells assessed as accumulation at G2 phase at 10 nM incubated for 24 hrs by flow cytometry (reference value: 11 %); type: functional
# [32] = test system: CFPAC-1; assay: Induction of apoptosis in human CFPAC-1 cells assessed as viable cells at 10 uM incubated for 24 hrs by annexin V-FITC/PI staining based flow cytometry (reference value: 92.9 %); type: functional; conditions: read-out: Activity
# [33] = Metabolic stability in mouse liver microsome assessed as intrinsic clearance; type: ADME; conditions: liver microsomes, read-out: CLH
# [34] = Aqueous solubility of the compound at 1 to 2 mg measured after 24 hrs by HPLC-MS analysis; type: physicochemical; conditions: aqueous (not further specified), dose 1-2 mg
# [35] = test system: CFPAC-1; assay: Induction of apoptosis in human CFPAC-1 cells assessed as late apoptotic cells at 10 uM incubated for 24 hrs by annexin V-FITC/PI staining based flow cytometry (reference value: 3.88 %); type: functional
# [36] = test system: CFPAC-1; assay: Induction of apoptosis in human CFPAC-1 cells assessed as necrotic cells at 1 uM incubated for 24 hrs by annexin V-FITC/PI staining based flow cytometry (reference value: 0.27 %); type: functional
# [37] = test system: CFPAC-1; assay: Antiproliferative activity against human CFPAC-1 cells assessed as inhibition of cell proliferation incubated for 72 hrs by SRB assay; type: functional, cell-based; conditions: CFPAC-1, 72 h
smiles,measurement,setting,value
COc1cc2c(OCCCc3cn([C@H]4O[C@@H](C)[C@H](O)[C@@H](O)[C@H]4O)nn3)c3c(c(-c4ccc5c(c4)OCO5)c2cc1OC)C(=O)OC3,inhibition at 1 µM,[1],45.9%
same,inhibition at 1 µM,[2],16.6%
same,inhibition at 1 µM,[3],8.08%
same,"inhibition at 72 h, 1 µM",[4],-0.18%
same,inhibition at 1 µM,[5],46.5%
COc1cc2c(NC(=O)[C@H](C)N)c3c(c(-c4ccc5c(c4)OCO5)c2cc1OC)C(=O)OC3,inhibition at 1 µM,[1],42.7%
same,inhibition at 1 µM,[2],25.3%
same,inhibition at 1 µM,[3],-4.32%
same,"inhibition at 72 h, 1 µM",[4],1.54%
same,inhibition at 1 µM,[5],0.64%
COc1cc2c(N)c3c(c(-c4ccc5c(c4)OCO5)c2cc1OC)C(=O)OC3,Activity,[6],3.61%
same,inhibition in vivo at 10 mg/kg,[7],44.7%
same,Activity,[8],10.3%
same,inhibition at 1 µM,[1],78.6%
same,IC50,[9],19 nM
same,IC50,[10],37 nM
same,viability at 1 µM,[11],84.8%
same,Activity,[12],2.21%
same,IC50 at 72 h,[13],487 nM
same,Activity,[14],80.9%
same,half-life,[15],88.7 min
same,Activity,[16],12.7%
same,Activity,[17],Non-Toxic
same,half-life,[18],28.5 min
same,CLH,[19],61.3 mL/min/kg
same,CLH,[20],9.6 mL/min/kg
same,Activity,[21],15.6%
same,IC50,[22],11 nM
same,inhibition at 1 µM,[2],90%
same,inhibition at 1 µM,[3],89.9%
same,Activity,[23],83.8%
same,Activity,[24],2.91%
same,Activity,[25],3.66%
same,Activity,[26],0.69%
same,"inhibition at 72 h, 1 µM",[4],34.4%
same,Activity,[27],Non-Toxic
same,microsomal CLint,[28],15.6 µL/min/mg
same,Activity,[29],74.3%
same,Activity,[30],11.9%
same,Activity,[31],8%
same,viability at 10 µM,[32],86.1%
same,inhibition at 1 µM,[5],91%
same,microsomal CLint,[33],48.7 µL/min/mg
same,solubility at 24 h,[34],0.028 µg/mL
same,Activity,[35],11%
same,Activity,[36],0.4%
same,IC50,[37],3 nM
COc1cc2c(NC(=O)[C@@H](N)COC(C)=O)c3c(c(-c4ccc5c(c4)OCO5)c2cc1OC)C(=O)OC3,inhibition at 1 µM,[1],11.6%
same,inhibition at 1 µM,[2],8.86%
same,inhibition at 1 µM,[3],2.63%
same,"inhibition at 72 h, 1 µM",[4],-0.71%
same,inhibition at 1 µM,[5],3.38%
COc1cc2c(NS(N)(=O)=O)c3c(c(-c4ccc5c(c4)OCO5)c2cc1OC)C(=O)OC3,inhibition at 1 µM,[1],72.4%
same,inhibition at 1 µM,[2],80.7%
same,inhibition at 1 µM,[3],34.1%
same,"inhibition at 72 h, 1 µM",[4],14.9%
same,inhibition at 1 µM,[5],29%
COc1cc2c(NC(=O)OC(C)(C)C)c3c(c(-c4ccc5c(c4)OCO5)c2cc1OC)C(=O)OC3,inhibition at 1 µM,[1],70.5%
same,IC50,[9],261 nM
same,IC50,[10],88 nM
same,IC50 at 72 h,[13],5120 nM
same,IC50,[22],161 nM
same,inhibition at 1 µM,[2],78.1%
same,inhibition at 1 µM,[3],72%
same,"inhibition at 72 h, 1 µM",[4],9.56%
same,inhibition at 1 µM,[5],52.5%
same,IC50,[37],37 nM
COc1cc2c(OCCCc3cn([C@H]4O[C@@H](C)[C@H](OC(C)=O)[C@@H](OC(C)=O)[C@H]4OC(C)=O)nn3)c3c(c(-c4ccc5c(c4)OCO5)c2cc1OC)C(=O)OC3,inhibition at 1 µM,[1],75.7%
same,IC50,[9],12 nM
same,IC50,[10],24 nM
same,IC50 at 72 h,[13],494 nM
same,half-life,[15],< 5 min
same,half-life,[18],< 5 min
same,CLH,[19],> 83.2 mL/min/kg
same,CLH,[20],> 19.4 mL/min/kg
same,IC50,[22],40 nM
same,inhibition at 1 µM,[2],86.7%
same,inhibition at 1 µM,[3],93.9%
same,"inhibition at 72 h, 1 µM",[4],38.3%
same,microsomal CLint,[28],> 277 µL/min/mg
same,inhibition at 1 µM,[5],93.6%
same,microsomal CLint,[33],> 277 µL/min/mg
same,IC50,[37],7 nM
COc1cc2c(N)c3c(c(-c4ccc5c(c4)OCO5)c2cc1OC)C(=O)OC3.Cl,solubility at 24 h,[34],0.055 µg/mL
